Earlier results on two molecules are cited in PMC6958329, “New ^55Co-labeled Albumin-Binding Folate Derivatives as Potential PET Agents for Folate Receptor Imaging” (Pharmaceuticals, 2019).

SMILES strings stand for the structures. Where two headings read alike, the source gives them in different places.

The data set relates to tumor. Also on record: method as in PMID 27145400. As to conditions: previously reported, cited from earlier work.

On to `Nc1nc2ncc(CNc3ccc(C(=O)N[C@@H](CCC(=O)NC(CCCCNC(=O)CCC(C(=O)O)N4CCN(CC(=O)O)CCN(CC(=O)O)CC4)C(=O)NC(CCCCNC(=O)CCCc4ccc(I)cc4)C(=O)O)C(=O)O)cc3)nc2c(=O)[nH]1.[68Ga]` (stereo partly drawn) [[^68Ga]Ga-rf42], for which the tumor uptake (4 h post-injection) is listed as 12% ± 2%.
Regarding `Nc1nc2ncc(CNc3ccc(C(=O)N[C@@H](CCC(=O)NC(CCCCNC(=O)CCC(C(=O)O)N4CCN(CC(=O)O)CCN(CC(=O)O)CC4)C(=O)NC(CCCCNC(=O)CCCc4ccc(I)cc4)C(=O)O)C(=O)O)cc3)nc2c(=O)[nH]1.[64Cu]` (stereo partly drawn) [[^64Cu]Cu-rf42], the tumor uptake is, setting by setting: (4 h post-injection) 14.5% ± 1.0%; (24 h post-injection) 16% ± 4%.
